The source of these data is ChEMBL document CHEMBL4699460, “Integrating DNA-encoded chemical libraries with virtual combinatorial library screening: Optimizing a PARP10 inhibitor” (Bioorg Med Chem Lett, 2020).

For assay [1], the target named is T1, Protein mono-ADP-ribosyltransferase PARP10 (Homo sapiens) (UniProt Q53GL7).
T1 sequence (whole entry): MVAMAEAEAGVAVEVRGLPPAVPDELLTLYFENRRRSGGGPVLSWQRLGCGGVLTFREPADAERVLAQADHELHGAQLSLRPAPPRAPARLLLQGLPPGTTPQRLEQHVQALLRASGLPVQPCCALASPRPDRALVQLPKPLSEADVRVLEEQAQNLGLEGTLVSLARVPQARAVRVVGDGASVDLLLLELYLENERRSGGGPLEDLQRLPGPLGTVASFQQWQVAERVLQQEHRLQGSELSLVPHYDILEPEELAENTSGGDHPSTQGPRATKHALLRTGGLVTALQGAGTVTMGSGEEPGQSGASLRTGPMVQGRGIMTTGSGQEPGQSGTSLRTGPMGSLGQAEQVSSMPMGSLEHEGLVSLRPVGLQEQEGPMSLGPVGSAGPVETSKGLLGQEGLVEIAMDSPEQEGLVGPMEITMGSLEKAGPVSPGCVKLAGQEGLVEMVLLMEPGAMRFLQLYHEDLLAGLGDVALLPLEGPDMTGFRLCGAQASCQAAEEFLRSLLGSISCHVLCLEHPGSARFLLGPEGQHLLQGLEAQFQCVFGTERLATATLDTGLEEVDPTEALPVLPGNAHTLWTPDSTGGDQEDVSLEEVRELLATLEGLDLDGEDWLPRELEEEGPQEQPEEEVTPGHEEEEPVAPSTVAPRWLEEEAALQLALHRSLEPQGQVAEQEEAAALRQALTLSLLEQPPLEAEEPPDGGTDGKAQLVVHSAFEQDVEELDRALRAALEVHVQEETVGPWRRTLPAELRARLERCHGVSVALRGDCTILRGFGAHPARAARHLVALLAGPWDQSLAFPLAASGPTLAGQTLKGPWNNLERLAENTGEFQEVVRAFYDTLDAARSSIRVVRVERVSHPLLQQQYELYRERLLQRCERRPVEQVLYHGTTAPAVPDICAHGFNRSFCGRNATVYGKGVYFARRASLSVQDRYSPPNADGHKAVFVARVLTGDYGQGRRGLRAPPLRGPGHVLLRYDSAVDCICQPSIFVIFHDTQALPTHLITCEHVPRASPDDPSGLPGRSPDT
In words: Inhibition of N-terminal FLAG-tagged and C-terminal strep-tagged human PARP10 (805 to 1025 residues) expressed in baculovirus infected Sf9 cells assessed as reduction in NAD+-dependent ADP ribosylation using histone as substrate at 1 uM incubated for 1 hr in presence of biotinylated NAD+ and activated DNA by chemiluminescence based microplate reader assay.

Assay [2] concerns the target T1, Protein mono-ADP-ribosyltransferase PARP10 (Homo sapiens). In words: Inhibition of N-terminal FLAG-tagged and C-terminal strep-tagged human PARP10 (805 to 1025 residues) expressed in baculovirus infected Sf9 cells assessed as reduction in NAD+-dependent ADP ribosylation using histone as substrate at 10 uM incubated for 1 hr in presence of biotinylated NAD+ and activated DNA by chemiluminescence based microplate reader assay relative to control.

Assay [3] has as its target T2, Protein mono-ADP-ribosyltransferase PARP3 (Homo sapiens) (UniProt Q9Y6F1).
T2 sequence (whole entry): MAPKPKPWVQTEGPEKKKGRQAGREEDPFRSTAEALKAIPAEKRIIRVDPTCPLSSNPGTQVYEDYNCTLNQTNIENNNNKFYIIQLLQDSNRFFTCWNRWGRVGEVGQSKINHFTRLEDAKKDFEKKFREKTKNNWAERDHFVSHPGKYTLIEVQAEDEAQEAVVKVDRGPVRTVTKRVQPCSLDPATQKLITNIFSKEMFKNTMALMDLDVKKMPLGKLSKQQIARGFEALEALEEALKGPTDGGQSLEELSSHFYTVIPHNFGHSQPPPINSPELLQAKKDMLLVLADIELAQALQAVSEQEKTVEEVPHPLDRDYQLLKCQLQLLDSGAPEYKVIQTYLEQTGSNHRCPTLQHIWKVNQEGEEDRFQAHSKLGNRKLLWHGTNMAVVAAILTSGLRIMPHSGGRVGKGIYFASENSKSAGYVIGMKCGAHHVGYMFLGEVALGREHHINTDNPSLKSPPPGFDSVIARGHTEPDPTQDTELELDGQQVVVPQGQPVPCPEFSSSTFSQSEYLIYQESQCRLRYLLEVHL
In words: Inhibition of N-terminal GST tagged full length human PARP3 expressed in baculovirus infected Sf9 cells assessed as reduction in NAD+-dependent ADP ribosylation using histone as substrate at 10 uM incubated for 1 hr in presence of biotinylated NAD+ and activated DNA by chemiluminescence based microplate reader assay relative to control.

Assay [4] has as its target Protein mono-ADP-ribosyltransferase PARP14 (Homo sapiens) (UniProt Q460N5). In words: Inhibition of N-terminal His-GST tagged human PARP14 (1470 to 1801 residues) expressed in baculovirus infected Sf9 cells assessed as reduction in NAD+-dependent ADP ribosylation using histone as substrate at 1 uM incubated for 1 hr in presence of biotinylated NAD+ and activated DNA by chemiluminescence based microplate reader assay relative to control.

Assay [5] shares this target. In words: Inhibition of N-terminal His-GST tagged human PARP14 (1470 to 1801 residues) expressed in baculovirus infected Sf9 cells assessed as reduction in NAD+-dependent ADP ribosylation using histone as substrate at 10 uM incubated for 1 hr in presence of biotinylated NAD+ and activated DNA by chemiluminescence based microplate reader assay relative to control.

Chain of Protein mono-ADP-ribosyltransferase PARP14 (Homo sapiens) (Q460N5 whole entry, the tested form may be a part): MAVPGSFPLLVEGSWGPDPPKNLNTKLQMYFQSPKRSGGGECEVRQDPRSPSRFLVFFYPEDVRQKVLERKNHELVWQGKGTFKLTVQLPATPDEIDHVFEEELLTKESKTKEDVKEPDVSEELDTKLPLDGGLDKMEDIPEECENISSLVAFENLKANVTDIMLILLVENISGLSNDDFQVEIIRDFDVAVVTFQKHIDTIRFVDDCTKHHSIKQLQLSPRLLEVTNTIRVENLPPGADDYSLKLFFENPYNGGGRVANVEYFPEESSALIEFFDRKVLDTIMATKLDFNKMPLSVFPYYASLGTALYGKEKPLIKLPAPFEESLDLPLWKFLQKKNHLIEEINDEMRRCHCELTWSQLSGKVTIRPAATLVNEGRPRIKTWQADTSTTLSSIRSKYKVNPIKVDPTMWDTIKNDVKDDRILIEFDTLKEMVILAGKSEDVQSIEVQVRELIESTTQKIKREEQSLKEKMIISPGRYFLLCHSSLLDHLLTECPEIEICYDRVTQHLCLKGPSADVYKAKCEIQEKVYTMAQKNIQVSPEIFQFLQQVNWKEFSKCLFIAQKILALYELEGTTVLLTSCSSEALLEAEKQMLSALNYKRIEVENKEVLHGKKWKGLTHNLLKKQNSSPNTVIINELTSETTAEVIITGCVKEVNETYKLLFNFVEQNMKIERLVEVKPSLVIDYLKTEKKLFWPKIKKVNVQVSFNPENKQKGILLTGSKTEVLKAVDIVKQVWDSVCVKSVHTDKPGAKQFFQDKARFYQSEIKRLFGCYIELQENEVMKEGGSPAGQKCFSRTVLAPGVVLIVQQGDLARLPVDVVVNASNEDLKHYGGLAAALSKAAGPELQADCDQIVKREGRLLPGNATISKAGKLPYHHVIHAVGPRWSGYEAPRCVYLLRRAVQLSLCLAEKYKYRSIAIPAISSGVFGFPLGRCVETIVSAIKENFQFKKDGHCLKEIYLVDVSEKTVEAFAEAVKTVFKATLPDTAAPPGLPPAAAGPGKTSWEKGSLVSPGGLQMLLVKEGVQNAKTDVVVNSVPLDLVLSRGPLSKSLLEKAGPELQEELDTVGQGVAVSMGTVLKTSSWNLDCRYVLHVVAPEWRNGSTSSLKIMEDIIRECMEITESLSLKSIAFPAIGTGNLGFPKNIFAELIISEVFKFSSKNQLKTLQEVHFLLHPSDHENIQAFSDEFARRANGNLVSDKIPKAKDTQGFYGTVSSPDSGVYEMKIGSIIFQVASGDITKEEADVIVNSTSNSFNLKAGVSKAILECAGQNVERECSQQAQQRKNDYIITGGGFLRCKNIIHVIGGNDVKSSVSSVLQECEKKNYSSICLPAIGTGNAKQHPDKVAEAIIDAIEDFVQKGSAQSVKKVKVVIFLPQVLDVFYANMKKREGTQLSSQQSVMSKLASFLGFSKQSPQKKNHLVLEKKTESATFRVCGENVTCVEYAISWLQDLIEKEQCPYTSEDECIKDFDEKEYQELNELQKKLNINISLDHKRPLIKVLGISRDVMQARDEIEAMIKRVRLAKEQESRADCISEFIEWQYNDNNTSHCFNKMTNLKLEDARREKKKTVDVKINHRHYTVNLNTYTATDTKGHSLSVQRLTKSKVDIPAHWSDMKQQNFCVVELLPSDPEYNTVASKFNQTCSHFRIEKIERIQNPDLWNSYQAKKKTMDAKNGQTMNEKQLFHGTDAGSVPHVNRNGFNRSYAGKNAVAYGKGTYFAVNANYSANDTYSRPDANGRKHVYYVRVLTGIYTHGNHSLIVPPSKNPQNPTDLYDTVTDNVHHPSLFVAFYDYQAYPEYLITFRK

Regarding `CC1(CNC(=O)COc2cccc3c2CCCC3=O)CCN(C(=O)CCc2nc3ccccc3[nH]c2=O)CC1`, the inhibition in assay [1] amounted to 25%; in assay [2], 90%; in assay [3] it was 22%; in assay [4], 21%.
Consider `CNC(=O)[C@H](CNC(=O)CCc1nc2ccccc2[nH]c1=O)NC(=O)c1ccc2c(c1)CCCC2=O`, for which the inhibition in assay [5] and in assay [3] was less than 25% throughout.
